# Assay results as given in patent US12479840B2, “HMG-CoA reductase degradation inducing compound” (Uppthera, priority 2020, dated 2025).
# Target: T1, HMG-CoA reductase (Homo sapiens, UniProt P04035)
# T1 construct: endogenous in cells; host or cells: HepG2 (Korea Cell Line Bank)
# T1 sequence (P04035 1-888): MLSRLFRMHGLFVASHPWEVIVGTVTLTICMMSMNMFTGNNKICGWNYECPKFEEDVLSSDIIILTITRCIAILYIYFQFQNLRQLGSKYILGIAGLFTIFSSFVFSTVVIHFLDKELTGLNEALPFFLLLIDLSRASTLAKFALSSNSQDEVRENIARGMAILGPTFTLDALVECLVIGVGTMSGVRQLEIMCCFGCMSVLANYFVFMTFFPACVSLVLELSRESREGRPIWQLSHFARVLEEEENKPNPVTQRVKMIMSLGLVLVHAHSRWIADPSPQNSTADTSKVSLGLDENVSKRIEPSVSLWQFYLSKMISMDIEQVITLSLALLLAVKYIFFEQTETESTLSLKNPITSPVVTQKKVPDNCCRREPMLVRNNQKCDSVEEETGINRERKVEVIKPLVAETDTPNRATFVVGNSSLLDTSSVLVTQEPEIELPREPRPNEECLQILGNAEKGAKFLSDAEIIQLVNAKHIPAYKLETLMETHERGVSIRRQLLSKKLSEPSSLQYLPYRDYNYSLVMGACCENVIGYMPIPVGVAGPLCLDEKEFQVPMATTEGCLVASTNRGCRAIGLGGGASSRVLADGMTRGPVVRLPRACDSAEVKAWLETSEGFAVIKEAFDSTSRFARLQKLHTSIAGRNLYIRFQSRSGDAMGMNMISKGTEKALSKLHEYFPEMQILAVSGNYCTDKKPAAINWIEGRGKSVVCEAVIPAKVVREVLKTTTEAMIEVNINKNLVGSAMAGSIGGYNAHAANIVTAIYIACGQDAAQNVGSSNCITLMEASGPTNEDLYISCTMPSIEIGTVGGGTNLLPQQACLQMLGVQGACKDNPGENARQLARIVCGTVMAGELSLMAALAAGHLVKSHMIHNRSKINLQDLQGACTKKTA
# Experiment: HMG-CoA reductase (HMGCR) degradation in HepG2 cells by western blotting
# Type: cell-based
# Conditions: treated for 18 hours, ratio of HMG-CoA reductase to GAPDH
# Description: HepG2, a human liver cancer cell line, was purchased from the Korea Cell Line Bank (KCLB), Seoul, Korea. The passage in cell culture was maintained at P105 to P110.
# The compounds of the present invention were completely dissolved in DMSO and used in the experiment. 2×10^5 cells were seeded for each well of a 12-well plate (SPL), and the cells were cultured in the culture medium in a total volume of 2 ml. Each of the compounds of the present invention and comparative compounds was diluted three folds from the highest concentration of 3 μM to the lowest concentration in 10 points and treated for 18 hours.
# Each of the compounds the present invention and comparative compounds was diluted three folds from the highest concentration of 3 μM to the lowest concentration of […] in 10 points and was treated for 18 hours.
# For SDS-PAGE and Western blotting, 1×RIPA lysis buffer (Rockland, Cat. No. MB-030-0050; Lot no. 39751), 100× Protease Inhibitor Cocktail (Quartett, Cat. No. PPI1015; Lot no. PCO50038424), Pierce™ BCA protein assay kit (ThermoScientific, Cat. No. 23225; Lot no. UC276876), albumin standard (ThermoScientific, Cat. No. 23209; Lot no. UB269561), 4-15% Mini-PROTEAN TGX stain-free gel (Bio-rad, Cat. No. 4568085; Lot no. L007041B), 10× Tris/Glycine/SDS buffer (Bio-rad, Cat. No. 1610732; Lot no. 10000044375B); 10×TBS (Bio-rad, Cat. No. 1706435; Lot no. 1000045140B), 10% Tween 20 (Cat. No. 1610781; Lot no. L004152B), Color protein standard broad range (NEB, Cat. No. P7719S; Lot no. 10040349), 4× Laemmli sample buffer (Bio-rad, Cat. No. 1610747; Lot no. L004133B), β-mercaptoethanol (Sigma-Aldrich, Cat. No. M3148; Lot no. 60-24-2), SuperBlock™ T20 (TBS) blocking buffer (ThermoScientific, Cat. No. 37536; Lot no. UC282578), 1M sodium azide solution (Sigma-Aldrich, Cat. No. 08591-1 mL-F; Lot no. BCBV4989), α-Rabbit pAb to Ms IgG (abcam, Cat. No. ab97046; Lot no. GR3252115-1), α-Goat pAb to Rb IgG (CST, Cat. No. 7074S; Lot no. 28), α-GAPDH (abcam, Cat. No. ab8245), α-HMGCR (GeneTex, Cat. No. GTX54088; Lot no. 821903509), ECL™ Prime western blotting reagents (GE Healthcare, Cat. No. RPN2232; Lot no. 17001655), Ponceau S solution (Sigma-Aldrich, Cat. No. P7170; Lot no. SLBV4112), Difco™ Skim milk (BD, Cat. No. 232100; Lot no. 8346795), and iBlot® 2 NC Regular stacks (Invitrogen, Cat. No. IB23001; Lot no. 2NR110619-02), were used.
# For cell harvesting, the cells were first separated from the plate using trypsin and then washed with the medium and PBS. Specifically, the medium was suctioned off and washed with 1 mL of PBS, and PBS was suctioned off. The cells were treated with 0.5 mL TrypLE™ Express at 37° C. for 7 minutes to separate the cells, and then 0.5 mL of complete medium was added to collect 1 mL of cell culture solution. Then, 1 mL of the cell collection solution was centrifuged at 8,000 rpm for 120 seconds, and the supernatant was removed. After washing with 0.2 mL of PBS, the PBS was removed.
# For cell lysis, a lysis buffer was added and cell debris was removed to obtain a cell lysate. Specifically, the cells were treated with 70 μL of 1×RIPA buffer containing a protease inhibitor and incubated for 30 minutes on ice. Then, the cells were centrifuged at 4° C. and 15,000 rpm for 10 minutes to obtain a cell lysate.
# Then, a standard curve was obtained using the BCA assay, and the protein mass in the lysate was quantified by substituting the curve. The mixture was incubated at 37° C. for 30 minutes using 20 μL of standard or sample solution, and 200 μL of BCA or Bradford solution, and measured at 562 nm absorbance. Samples were prepared by adding 4× sample buffer so that the quantity of protein added to each well was 15 μg.
# Sodium dodecyl sulfate polyacrylamide gel electrophoresis (SDS-PAGE) was performed by setting a running time of 100 minutes at 120 V on a 4-15% Mini-PROTEAN TGX stain-free gel (15 well). Transferring was performed on iBlot® 2 NC Mini stacks at P0 mode of the dry blotting system. […]
row,Structure (SMILES),DC50
1,"Cc1ncsc1-c1ccc(CNC(=O)[C@@H]2C[C@@H](O)CN2C(=O)[C@@H](NC(=O)C2(F)CC2)C(C)(C)C)c(OCCOCCOCCNC(=O)O[C@H]2C[C@@H](C)C=C3C=C[C@H](C)[C@H](CC[C@@H]4C[C@@H](O[Si](C)(C)C(C)(C)C)CC(=O)O4)[C@H]32)c1 [Compound 28, (1S,3R,7S,8S,8aR)-8-(2-((2R,4R)-4-((tert-butyldimethylsilyl)oxy)-6-oxotetrahydro-2H-pyran-2-yl)ethyl)-3,7-dimethyl-1,2,3,7,8,8a-hexahydronaphthalen-1-yl (2-(2-(2-(2-(((2S,4R)-1-((S)-2-(1-fluorocyclopropane-1-carboxamido)-3,3-dimethylbutanoyl)-4-hydroxypyrrolidine-2-carboxamido)methyl)-5-(4-methylthiazol-5-yl)phenoxy)ethoxy)ethoxy)ethyl)carbamate]",< 50 nM

# Same assay, conditions: treated for 18 hours, ratio of HMG-CoA reductase to GAPDH, read-out: DC50
row,Structure (SMILES),DC50
1,"C[C@H]1C=C2C=C[C@H](C)[C@H](CC[C@@H]3C[C@@H](O[Si](C)(C)C(C)(C)C)CC(=O)O3)[C@H]2[C@@H](OC(=O)NCCOCCOCCOCCOCCOCCOCCNc2cccc3c2C(=O)N(C2CCC(=O)NC2=O)C3=O)C1 (stereo partly drawn) [Compound 50, (1S,3R,7S,8S,8aR)-8-(2-((2R,4R)-4-((tert-butyldimethylsilyl)oxy)-6-oxotetrahydro-2H-pyran-2-yl)ethyl)-3,7-dimethyl-1,2,3,7,8,8a-hexahydronaphthalen-1-yl (20-((2-(2,6-dioxopiperidin-3-yl)-1,3-dioxoisoindolin-4-yl)amino)-3,6,9,12,15,18-hexaoxaicosyl)carbamate]",< 50 nM
2,"C[C@H]1C=C2C=C[C@H](C)[C@H](CC[C@H]3C[C@H](O)CC(=O)O3)[C@H]2[C@@H](OC(=O)NCCOCCOCCOCC(=O)NCC(C)(C)C)C1 [Compound 13, (1S,3R,7S,8S,8aR)-8-(2-((2S,4S)-4-hydroxy-6-oxotetrahydro-2H-pyran-2-yl)ethyl)-3,7-dimethyl-1,2,3,7,8,8a-hexahydronaphthalen-1-yl (14,14-dimethyl-11-oxo-3,6,9-trioxa-12-azapentadecyl) carbamate]",> 500 nM
3,"Cc1ncsc1-c1ccc(CNC(=O)[C@@H]2C[C@@H](O)CN2C(=O)[C@@H](NC(=O)COCCOCCOCCOCCNC(=O)CCC(C)(C)C(=O)O[C@H]2C[C@@H](C)C=C3C=C[C@H](C)[C@H](CC[C@@H]4C[C@@H](O)CC(=O)O4)[C@H]32)C(C)(C)C)cc1 [Compound 11, (S)-(1S,3R,7S,8S,8aR)-8-(2-((2R,4R)-4-hydroxy-6-oxotetrahydro-2H-pyran-2-yl)ethyl)-3,7-dimethyl-1,2,3,7,8,8a-hexahydronaphthalen-1-yl 3-((2S,4R)-4-hydroxy-2-((4-(4-methylthiazol-5-yl)benzyl)carbamoyl)pyrrolidine-1-carbonyl)-2,2,23,23-tetramethyl-5,20-dioxo-7,10,13,16-tetraoxa-4,19-diazatetracosan-24-oate]",< 50 nM
4,"C[C@H]1C=C2C=C[C@H](C)[C@H](CC[C@@H]3C[C@@H](O[Si](C)(C)C(C)(C)C)CC(=O)O3)[C@H]2[C@@H](OC(=O)NCCOCCOCC#Cc2cccc3c2C(=O)N(C2CCC(=O)NC2=O)C3=O)C1 (stereo partly drawn) [Compound 114, (1S,3R,7S,8S,8aR)-8-(2-((2R,4R)-4-((tert-butyldimethylsilyl)oxy)-6-oxotetrahydro-2H-pyran-2-yl)ethyl)-3,7-dimethyl-1,2,3,7,8,8a-hexahydronaphthalen-1-yl (2-(2-((3-(2-(2,6-dioxopiperidin-3-yl)-1,3-dioxoisoindolin-4-yl)prop-2-yn-1-yl)oxy)ethoxy)ethyl)carbamate]",< 50 nM
5,"C[C@H]1C=C2C=C[C@H](C)[C@H](CC[C@@H]3C[C@@H](O)CC(=O)O3)[C@H]2[C@@H](OC(=O)NCCOCCOCCOCCOCCOCCOCCNc2cccc3c2C(=O)N(C2CCC(=O)NC2=O)C3=O)C1 (stereo partly drawn) [Compound 44, (1S,3R,7S,8S,8aR)-8-(2-((2R,4R)-4-hydroxy-6-oxotetrahydro-2H-pyran-2-yl)ethyl)-3,7-dimethyl-1,2,3,7,8,8a-hexahydronaphthalen-1-yl (20-((2-(2,6-dioxopiperidin-3-yl)-1,3-dioxoisoindolin-4-yl)amino)-3,6,9,12,15,18-hexaoxaicosyl)carbamate]",< 50 nM
6,Cc1ncsc1-c1ccc(CNC(=O)[C@@H]2C[C@@H](O)CN2C(=O)[C@@H](NC(=O)COCCOCCOCCNC(=O)CCC(C)(C)C(=O)O[C@H]2C[C@@H](C)C=C3C=C[C@H](C)[C@H](CC[C@@H]4C[C@@H](O)CC(=O)O4)[C@H]32)C(C)(C)C)cc1 [Compound 10],< 50 nM
7,"C[C@H]1C=C2C=C[C@H](C)[C@H](CC[C@@H]3C[C@@H](O[Si](C)(C)C(C)(C)C)CC(=O)O3)[C@H]2[C@@H](OC(=O)NCc2cccc(CNC(=O)COc3cccc4c3C(=O)N(C3CCC(=O)NC3=O)C4=O)c2)C1 (stereo partly drawn) [Compound 78, (1S,3R,7S,8S,8aR)-8-(2-((2R,4R)-4-((tert-butyldimethylsilyl)oxy)-6-oxotetrahydro-2H-pyran-2-yl)ethyl)-3,7-dimethyl-1,2,3,7,8,8a-hexahydronaphthalen-1-yl (3-((2-((2-(2,6-dioxopiperidin-3-yl)-1,3-dioxoisoindolin-4-yl)oxy)acetamido)methyl)benzyl)carbamate]",< 50 nM
